Molecules are shown by their SMILES.

These results are taken from patent US10829438B2, “Neprilysin inhibitors” (THERAVANCE BIOPHARMA R&D IP, LLC, priority 2012, dated 2020).

human NEP, sequence (P08473 52-750): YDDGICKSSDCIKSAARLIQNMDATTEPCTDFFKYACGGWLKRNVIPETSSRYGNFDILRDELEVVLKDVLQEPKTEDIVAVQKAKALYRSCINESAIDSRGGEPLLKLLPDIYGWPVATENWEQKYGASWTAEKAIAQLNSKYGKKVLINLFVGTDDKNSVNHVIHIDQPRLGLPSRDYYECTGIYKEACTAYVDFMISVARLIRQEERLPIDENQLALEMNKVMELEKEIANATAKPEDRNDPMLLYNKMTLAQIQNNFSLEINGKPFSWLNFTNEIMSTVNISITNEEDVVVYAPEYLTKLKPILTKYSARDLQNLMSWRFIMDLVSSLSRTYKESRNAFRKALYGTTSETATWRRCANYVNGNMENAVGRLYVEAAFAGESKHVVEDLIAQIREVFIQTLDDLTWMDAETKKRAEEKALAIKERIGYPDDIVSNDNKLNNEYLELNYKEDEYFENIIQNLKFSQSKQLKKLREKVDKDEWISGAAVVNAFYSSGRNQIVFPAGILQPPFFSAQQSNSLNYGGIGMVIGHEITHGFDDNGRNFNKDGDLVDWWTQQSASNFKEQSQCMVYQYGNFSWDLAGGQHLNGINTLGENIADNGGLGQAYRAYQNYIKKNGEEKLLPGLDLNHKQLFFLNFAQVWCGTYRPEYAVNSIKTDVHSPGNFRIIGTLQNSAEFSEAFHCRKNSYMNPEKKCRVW

One assay addresses human NEP (Homo sapiens (Human), UniProt P08473). The assay can be described thus: In vitro enzyme inhibition assay at human NEP (fluorogenic peptide substrate). It is filed as biochemical.
Details: not given
On the procedure:
In Vitro Assays for the Quantitation of Inhibitor Potencies (IC50) at Human and Rat NEP, and Human ACE
The inhibitory activities of compounds at human and rat neprilysin (EC 3.4.24.11; NEP) and human angiotensin converting enzyme (ACE) were determined using in vitro assays as described below.
Recombinant human NEP and recombinant human ACE were obtained commercially (R&D Systems, Minneapolis, Minn., catalog numbers 1182-ZN and 929-ZN, respectively). The fluorogenic peptide substrate Mca-D-Arg-Arg-Leu-Dap-(Dnp)-OH (Medeiros et al. (1997) Braz. J. Med. Biol. Res. 30:1157-62; Anaspec, San Jose, Calif.) and Abz-Phe-Arg-Lys(Dnp)-Pro-OH (Araujo et al. (2000) Biochemistry 39:8519-8525; Bachem, Torrance, Calif.) were used in the NEP and ACE assays respectively.
The assays were performed in 384-well white opaque plates at 37° C. using the fluorogenic peptide substrates at a concentration of 10 μM in Assay Buffer (NEP: 50 mM HEPES, pH 7.5, 100 mM NaCl, 0.01% polyethylene glycol sorbitan monolaurate (Tween-20), 10 μM ZnSO4; ACE: 50 mM HEPES, pH 7.5, 100 mM NaCl, 0.01% Tween-20, 1 μM ZnSO4).
Test compounds were assayed over the range of concentrations from […] to 20 μM. Test compounds were added to the enzymes and incubated for 30 minute at 37° C. prior to initiating the reaction by the addition of substrate. Reactions were terminated after 20 minutes of incubation at 37° C. by the addition of glacial acetic acid to a final concentration of 3.6% (v/v).
Plates were read on a fluorometer with excitation and emission wavelengths set to 320 nm and 405 nm, respectively. Inhibition constants were obtained by nonlinear regression of the data using the equation (GraphPad Software, Inc., San Diego, Calif.): v=v0/[1+(I/K′)] where v is the reaction rate, v0 is the uninhibited reaction rate, I is the inhibitor concentration and K′ is the apparent inhibition constant.
As to `O=C(N[C@H](Cc1ccc(-c2cccc(Cl)c2)cc1)C[C@@H](O)C(=O)O)c1ccc2nnn(OCc3ccccc3)c2c1` [Example 1I, (2R,4R)-4-[(3-Benzyloxy-3H-benzotriazole-5-carbonyl)amino]-5-(3′-chlorobiphenyl-4-yl)-2-hydroxypentanoic Acid], the Ki was 12.6 to 100 nM.

The same assay, now with this note: recombinant human NEP; 30 minute pre-incubation at 37° C.; fluorogenic substrate 10 μM.
Consider `CC(=O)OCOn1nnc2ccc(C(=O)N[C@H](Cc3ccc(-c4cccc(Cl)c4)cc3)C[C@@H](O)C(=O)O)cc21` [Example 1G, (2R,4R)-4-[(3-Acetoxymethoxy-3H-benzotriazole-5-carbonyl)amino]-5-(3′-chlorobiphenyl-4-yl)-2-hydroxypentanoic Acid], for which the “pKi value at human NEP” value was not below 9.0.

In the case of `CC(C)[C@@H](N)C(=O)OCOn1nnc2ccc(C(=O)N[C@H](Cc3ccc(-c4cccc(Cl)c4)cc3)C[C@@H](O)C(=O)O)cc21` [Example 1L, (2R,4R)-4-{[3-((R)-2-Amino-3-methylbutyryloxymethoxy)-3H-benzotriazole-5-carbonyl]amino}-5-(3′-chlorobiphenyl-4-yl)-2-hydroxy-pentanoic Acid], the “pKi value at human NEP” value is reported as not below 9.0.

Take `O=C(N[C@H](Cc1ccc(-c2cccc(Cl)c2)cc1)C[C@@H](O)C(=O)O)c1cc(-c2ccccc2F)no1` [Example 6A, (2R,4R)-5-(3′-Chlorobiphenyl-4-yl)-4-{[3-(2-fluorophenyl)isoxazole-5-carbonyl]amino}-2-hydroxypentanoic Acid]: the “pKi value at human NEP” value is given as not below 9.0.

The assay is the same for the next values; noted with them: recombinant human NEP; 30 minute pre-incubation at 37° C.; fluorogenic substrate 10 μM; read-out: pKi value at human NEP (converted).
For `O=C(N[C@H](Cc1ccc(-c2cccc(Cl)c2)cc1)C[C@@H](O)C(=O)O)c1ccc2nnn(O)c2c1` [Example 1A, (2R,4R)-5-(3′-Chlorobiphenyl-4-yl)-2-hydroxy-4-[(3-hydroxy-3H-benzotriazole-5-carbonyl)amino]pentanoic Acid], the Ki was not above 1 nM.

Take `CCCC(=O)OCOn1nnc2ccc(C(=O)N[C@H](Cc3ccc(-c4cccc(Cl)c4)cc3)C[C@@H](O)C(=O)O)cc21` [Example 1M, (2R,4R)-4-[(3-Butyryloxymethoxy-3H-benzotriazole-5-carbonyl)amino]-5-(3′-chlorobiphenyl-4-yl)-2-hydroxypentanoic Acid]: the Ki is 1.26 to 10 nM.

As to `Cn1nc(C(=O)N[C@H](Cc2ccc(-c3cccc(Cl)c3)cc2)C[C@@H](O)C(=O)O)cc1O` [Example 2A, (2R,4R)-5-(3′-Chlorobiphenyl-4-yl)-2-hydroxy-4-[(5-hydroxy-1-methyl-1H-pyrazole-3-carbonyl)amino]pentanoic Acid], the Ki was not above 1 nM.

With `O=C(N[C@H](Cc1ccc(-c2cccc(Cl)c2)cc1)C[C@@H](O)C(=O)O)c1cc(O)n(-c2ccccn2)n1` [Example 3A, (2R,4R)-5-(3′-Chlorobiphenyl-4-yl)-2-hydroxy-4-[(5-hydroxy-1-pyridin-2-yl-1H-pyrazole-3-carbonyl)amino]pentanoic Acid], the Ki was not above 1 nM.

Regarding `CC(=O)c1cc(C(=O)N[C@H](Cc2ccc(-c3cc(Cl)ccc3F)cc2)C[C@@H](O)C(=O)O)n[nH]1` [Example 4B, (2R,4R)-4-[(5-Acetyl-1H-pyrazole-3-carbonyl)amino]-5-(5′-chloro-2′-fluorobiphenyl-4-yl)-2-hydroxypentanoic Acid], the Ki is not above 1 nM.

`CC(=O)c1cc(C(=O)N[C@H](Cc2ccc(-c3cccc(Cl)c3)cc2)C[C@@H](O)C(=O)O)n[nH]1` [Example 5B, (2R,4R)-4-[(5-Acetyl-1H-pyrazole-3-carbonyl)amino]-5-(3′-chlorobiphenyl-4-l)-2-hydroxypentanoic Acid]: the Ki is not above 1 nM.

Turning to `COc1cc(C(=O)N[C@H](Cc2ccc(-c3cccc(Cl)c3)cc2)C[C@@H](O)C(=O)O)on1` [Example 7A, (2R,4R)-5-(3′-Chlorobiphenyl-4-yl)-2-hydroxy-4-[(3-methoxyisoxazole-5-carbonyl)amino]pentanoic Acid], the Ki is not above 1 nM.

Turning to `O=C(N[C@H](Cc1ccc(-c2cc(Cl)ccc2F)cc1)C[C@@H](O)C(=O)O)c1cn(O)nn1` [Example 8A, (2R,4R)-5-(5′-Chloro-2′-fluorobiphenyl-4-yl)-2-hydroxy-4-[(1-hydroxy-1H-[1,2,3]triazole-4-carbonyl)amino]pentanoic Acid], the Ki was not above 1 nM.

Turning to `O=C(N[C@H](Cc1ccc(-c2cccc(Cl)c2)cc1)C[C@@H](O)C(=O)O)c1nn(-c2ccccc2)c(=O)[nH]1` [Example 9A, (2R,4R)-5-(3′-Chlorobiphenyl-4-yl)-2-hydroxy-4-[(5-oxo-1-phenyl-4,5-dihydro-1H-[1,2,4]triazole-3-carbonyl)amino]pentanoic Acid], the Ki was not above 1 nM.

Regarding `CC(=O)c1cc(C(=O)N[C@H](Cc2ccc(-c3ccccc3)cc2)C[C@@H](O)C(=O)O)[nH]n1` [formula X′, (2R,4R)-4-[(5-acetyl-2H-pyrazole-3-carbonyl)amino]-5-biphenyl-4-yl-2-hydroxypentanoic acid], the Ki was not above 1 nM.
